In article PMC4942819 (Scientific Reports, 2016):
In brackets after ≈: the same amount, converted by molar mass. Like-named read-outs stand apart in the source and are kept apart here.

Experiments:
M. tuberculosis H37Rv = assay: MABA checkerboard synergy assay; type: cell-based, Mycobacterium tuberculosis
XDR-TB clinical isolates = assay: microbe, parasite or virus in culture; type: cell-based, Mycobacterium tuberculosis; conditions: for MIC, XDR-TB strain X15 / MIC, XDR-TB strain X17: clinical isolate, Table 2 prints no unit, test range 0.0156 to 64 μg/mL; for MIC: Mycobacterium tuberculosis
MDR-TB clinical isolates = assay: microbe, parasite or virus in culture; type: cell-based; conditions: Mycobacterium tuberculosis
M. tuberculosis Erdman = assay: in vivo acute M.tb Erdman infection mouse model; parameters: species or system Mycobacterium tuberculosis; conditions: BALB/c mice
[1] = system: M. tuberculosis Erdman in J774A.1 cells; assay: macrophage assay, intracellular activity; type: cell-based, Mycobacterium tuberculosis
Method: As described previously, J774A.1 cells were grown in 75-cm2 cell culture flasks in 10% FBS in Dulbecco’s modified Eagle’s medium (DMEM) until confluency. The cells were detached using a cell scraper, and then centrifuged at 200 g for 5 min at room temperature. The cells were incubated at 37 °C under 5% CO2 for 16 h after distributing into 24-well plates containing coverslips. M. tuberculosis Erdman (ATCC 35801) were diluted to a final concentration of 1 × 10^5 to 3 × 10^5 CFU/mL with DMEM after thawing and sonicating from frozen cultures. And 500 ul of the dilution was dispensed to each well of a new 24-well plate. Followed by, J774A.1 cells on coverslips were infected by incubation with M. tuberculosis Erdman at 37 °C for 2 h. Coverslips were then washed with HBSS and transferred to new 24-well plates. The Cultures were treated in triplicate with compounds at 0.02 μM containing DMEM and incubated at 37 °C under 5% CO2 for 16 h. At D 0 (for untreated controls) and after 7 days of incubation, macrophage cells were lysed by addition of 200 μL of 0.25% sodium dodecyl sulfate. The plates were incubated at 37 °C for 10 min, and 200 μL of DMEM was added. The lysate was sampled using a microtube and sonicated for 15 s. Then 1:1, 1:10, 1:100, and 1:1,000 dilutions were plated on 7H11 agar plates and CFU counts determined after 2 to 3 weeks of incubation at 37 °C.

[2] = read-out: MIC, MDR-TB strain M3
[3] = read-out: MIC, MDR-TB strain M4
[4] = read-out: MIC, MDR-TB strain M8
[5] = read-out: MIC, MDR-TB strain M18
[6] = read-out: MIC, XDR-TB strain X15
[7] = read-out: MIC, XDR-TB strain X17

**Q.** For `CC(=O)NC[C@H]1CN(c2ccc(N3CCOCC3)c(F)c2)C(=O)O1` [LZD, Linezolid], which MIC (M. tuberculosis H37Rv; Mycobacterium tuberculosis, H37RV, 336 h, checkerboard, drug alone, read-out: MIC against H37Rv, MIC alone) is on record?
**A.** 0.145 µg/mL

**Q.** And the “MIC against H37Rv, MIC in combo.” value (M. tuberculosis H37Rv; in combination with TB1001)?
**A.** 0.1 µg/mL

**Q.** Which results are given for `C[C@H]1COc2c(N3CCN(C)CC3)c(F)cc3c(=O)c(C(=O)O)cn1c23` [LVFX, levo-ofloxacin]?
**A.** MIC, XDR-TB strain X15 (XDR-TB clinical isolates): 4 µg/mL (≈ 11.1 µM); MIC, XDR-TB strain X17 (XDR-TB clinical isolates): 32 µg/mL (≈ 88.6 µM)

**Q.** With `[H]/N=C(/N)N[C@H]1[C@H](O)[C@@H](O)[C@H](O[C@@H]2O[C@@H](C)[C@](O)(C=O)[C@H]2O[C@@H]2O[C@@H](CO)[C@H](O)[C@@H](O)[C@@H]2NC)[C@@H](N/C(N)=N\[H])[C@@H]1O` [SM, streptomycin] as the molecule, how does the MIC (MDR-TB clinical isolates; [2]) read?
**A.** 64 µg/mL (≈ 110 µM)

**Q.** What about the MIC (MDR-TB clinical isolates; [3]) of the same molecule?
**A.** 8 µg/mL (≈ 13.8 µM)

**Q.** And the MIC (MDR-TB clinical isolates; [4])?
**A.** 64 µg/mL (≈ 110 µM)

**Q.** And the MIC (MDR-TB clinical isolates; [5])?
**A.** 64 µg/mL (≈ 110 µM)

**Q.** And the MIC (XDR-TB clinical isolates; [6])?
**A.** 8 µg/mL (≈ 13.8 µM)

**Q.** What about the MIC (XDR-TB clinical isolates; [7]) of the same molecule?
**A.** 64 µg/mL (≈ 110 µM)

**Q.** What does the source list for `CO[C@H]1/C=C/O[C@@]2(C)Oc3c(C)c(O)c4c(O)c(c(/C=N/N5CCN(C)CC5)c(O)c4c3C2=O)NC(=O)/C(C)=C\C=C\[C@H](C)[C@H](O)[C@@H](C)[C@@H](O)[C@@H](C)[C@H](OC(C)=O)[C@@H]1C` [RMP, rifampicin]?
**A.** reduction of bacterial concentration in lungs compared to vehicle control group (M. tuberculosis Erdman; 15 mg/kg oral): 2.5 logs; Log10 CFU (SD), bacterial burden in mouse lungs (M. tuberculosis Erdman; Day-36, 15 mg/kg oral daily from day 10): 3.73 (3.19); MIC (MDR-TB clinical isolates; [2]): 64 µg/mL (≈ 77.8 µM); MIC (MDR-TB clinical isolates; [3]): 64 µg/mL (≈ 77.8 µM); MIC (MDR-TB clinical isolates; [4]): 64 µg/mL (≈ 77.8 µM); MIC (MDR-TB clinical isolates; [5]): 64 µg/mL (≈ 77.8 µM); MIC (XDR-TB clinical isolates; [6]): 64 µg/mL (≈ 77.8 µM); MIC (XDR-TB clinical isolates; [7]): 64 µg/mL (≈ 77.8 µM); Log10 CFU, intracellular Mtb Erdman ([1]; J774A.1 macrophages, 0.02 μM (Fig. 2 legend: 0.02 μg/mL), 7 days): 6.44; Fold(log) reduction ([1]; decrease of log10 CFU between D7 and treatment group, J774A.1, 0.02 μM (Fig. 2 legend: 0.02 μg/mL)): 0.41 log; MIC against H37Rv, MIC in combo. (M. tuberculosis H37Rv; in combination with BTZ043): 0.007 µg/mL; MIC against H37Rv, MIC in combo. (M. tuberculosis H37Rv; in combination with TB1001): 0.001 µg/mL; decrease of MIC (M. tuberculosis H37Rv; in the presence of SKLB-TB1001): 6 fold

**Q.** Which results are given for `NC[C@H]1O[C@H](O[C@H]2[C@H](O)[C@@H](O[C@H]3O[C@H](CO)[C@@H](O)[C@H](N)[C@H]3O)[C@H](N)C[C@@H]2N)[C@H](O)[C@@H](O)[C@@H]1O` [KM, kanamycin]?
**A.** MIC, XDR-TB strain X15 (XDR-TB clinical isolates): 64 µg/mL (≈ 132 µM); MIC, XDR-TB strain X17 (XDR-TB clinical isolates): 64 µg/mL (≈ 132 µM)

**Q.** With `CC1COc2c(N3CCN(C)CC3)c(F)cc3c(=O)c(C(=O)O)cn1c23` (stereo not drawn) [OFLX, ofloxacin] as the molecule, how does the MIC (XDR-TB clinical isolates; [6]) read?
**A.** 8 µg/mL (≈ 22.1 µM)

**Q.** What about the MIC (XDR-TB clinical isolates; [7]) of the same molecule?
**A.** 32 µg/mL (≈ 88.6 µM)
